Data: patent EP0489933A1, “BILE ALCOHOL AND DRUG CONTAINING THE SAME AS ACTIVE INGREDIENT” (TSUMURA CO., LTD., priority 1990, dated 1992)

Assays:
[1] = tested on: platelet rich plasma (PRP); assay: Platelet aggregation in platelet rich plasma after oral administration; type: in vivo, male rat; details: 30 mg/kg, p.o., blood 90 minutes after administration
Procedure: Each drug to be tested was orally administered to each male rat which has been subjected to fasting treatment for 18 to 24 hours. After 90 minutes of the administration, median incision ventrotomy was carried out under ether anesthesia to collect 9 volumes of blood using a syringe filled with 1 volume of 3.8% sodium citrate solution (3.8% sodium citrate solution:blood = 1:9). After thorough mixing, the thus prepared mixture was centrifuged at 800 rpm for 10 minutes at room temperature to collect the resulting supernatant fluid as platelet rich plasma (PRP). The residual portion was centrifuged at 3,000 rpm for 15 minutes at room temperature to collect the resulting supernatant fluid as platelet poor plasma (PPP). The PRP was diluted with the PPP to adjust the number of platelets to 3×10⁵ ± 2×10⁴ cells/µl. A 450 µl portion of the thus diluted PRP was incubated at 37°C for 3 minutes and then mixed with 50 µl of 1×10⁻⁵ M of ADP or 1×10⁻⁵ g/ml of collagen. Thereafter, platelet aggregation test of the mixture was carried out using an aggregometer by measuring transmittance at 940 nm.

[2] = Blood plasma clotting time after oral administration; type: in vivo, male rats of Wistar line; details: 30 mg/kg, p.o.; blood collected 90 minutes after administration; calcium chloride, 37°C
Procedure: In this experiment, 9-week-old male rats of Wistar line (5 to 6 individuals per one group) were used after rearing them for 1 week with normal feed. After 24 hours of fasting, each test drug was administered orally and, 90 minutes thereafter, blood sample was collected from lower abdominal vena cava of each rat under anesthesia with Nembutal® (1 ml/kg, i.p.). Blood samples obtained in this way were checked for their blood clotting time and erythrocyte deformability.
Measuring procedures are as follows.
Blood clotting time ... Collected blood sample is centrifuged at 3,500 rpm for 10 minutes to obtain blood plasma. The blood plasma is pre-incubated for 1 minute in a water bath controlled at 37°C, mixed with calcium chloride and then shaken at 20 second intervals to measure a time required for its clotting.

male SD rats = assay: Thrombus formation in abdominal vena cava; type: in vivo; details: 30 mg/kg, p.o.; dry weight of thrombus
Procedure: Each of male SD rats of 130 to 210 g in body weight was anesthetized with Nembutal® (50 mg/kg, i.p.) and subjected to median incision ventrotomy to release about a 2 cm portion of abdominal vena cava below the renal vein. Blood flow of the thus released vena cava was temporarily stopped for 5 minutes with 8 hemostatic clips. After recirculating blood for 5 minutes by removing the hemostatic clips, […] was ligated at a position just below the renal vein and the median-incised part was sutured. Two hours after the ligature, the thus treated rat was again subjected to ventrotomy to excise abdominal vena cava. The thus excised blood vessel was cut open on a filter paper which had been moistened with physiological saline, in order to take out thrombus. The thrombus thus obtained was washed with physiological saline to remove adhered blood and the like substances and then dried at 80°C for 12 hours or longer to measure its dry weight. In this instance, each drug to be tested was orally administered 90 minutes before the clipping to examine its effect by single administration on the formation of thrombus. Separately from this, each test drug was administered to 6-week-old male SD rat continuously for 7 days, thrombus was prepared in the eighth day in the same manner as described above and dry weight of the thrombus was measured, in order to examine effect of the continuous 7 day administration on the thrombus formation.

Qualitative solubility = type: physicochemical

SMILES	Platelet Aggregation Ratio ±S.E. ([1]; ADP (1×10⁻⁵ M)) [%]	Platelet Aggregation Ratio ±S.E. ([1]; Collagen (1×10⁻⁵ g/ml)) [%]	Plasma Clotting Time ± S.E. [2] [s]	Antithrombotic Effect: Thrombus weight ±S.E. (male SD rats) [mg]	solubility in H₂O (Qualitative solubility)
CC(CCC1OCC1CO)C1CCC2C3C(O)CC4CC(O)CCC4(C)C3CC(O)C12C [Example 3, (24R)-(25S)-(+)-24,26-epoxy-5β-cholestane-3α,7α,12α,27-tetrol]	42.5 ± 3.81	42.5 ± 1.85	195 ± 1.9	13.5 ± 1.22	
C[C@H](CC[C@H]1OC[C@H]1CO)[C@H]1CC[C@H]2[C@@H]3[C@H](O)C[C@@H]4C[C@H](O)CC[C@]4(C)[C@H]3C[C@H](O)[C@]12C [Example 4, (24R)-(25R)-(+)-24,26-epoxy-5β-cholestane-3α,7α,12α,27-tetrol]	46.1 ± 2.65	47.7 ± 3.88		11.2 ± 3.81	insol in H₂O
C[C@H](CC[C@@H](O)C1COC1)[C@H]1CC[C@H]2[C@@H]3[C@H](O)C[C@@H]4C[C@H](O)CC[C@]4(C)[C@H]3C[C@H](O)[C@]12C [Example 5, (24R)-(+)-26,27-epoxy-5β-cholestane-3α,7α,12α,24-tetrol]	48.5 ± 3.31	48.1 ± 2.65		11.2 ± 3.12	insol in H₂O
C[C@H](CCCC(CO)CO)[C@H]1CC[C@H]2[C@@H]3[C@H](O)C[C@@H]4C[C@H](O)CC[C@]4(C)[C@H]3C[C@H](O)[C@]12C [Example 6, 3α,7α,12α,26,27-pentahydroxy-5β-cholestane]	50.1 ± 2.33	42.3 ± 3.83		13.5 ± 2.11	
C[C@H](CCCC(CO)CO)[C@H]1CC[C@H]2[C@@H]3[C@H](O)C[C@H]4C[C@H](O)CC[C@]4(C)[C@H]3C[C@H](O)[C@]12C [Example 7, 3α,7α,12α,26,27-pentahydroxy-5α-cholestane]	44.3 ± 2.43	42.1 ± 3.15		12.2 ± 1.33	
C[C@H](CC[C@H](O)C(CO)CO)[C@H]1CC[C@H]2[C@@H]3[C@H](O)C[C@@H]4C[C@H](O)CC[C@]4(C)[C@H]3C[C@H](O)[C@]12C [Example 8, (24S)-3α,7α,12α,24,26,27-hexahydroxy-5β-cholestane]	41.8 ± 1.81	46.6 ± 3.81		10.5 ± 1.43	
C[C@H](CC[C@H](O)[C@@H](C)CO)[C@H]1CC[C@H]2[C@@H]3[C@H](O)C[C@@H]4C[C@H](O)CC[C@]4(C)[C@H]3C[C@H](O)[C@]12C [Example 9, (24S)-(25S)-3α,7α,12α,24,26-pentahydroxy-5β-cholestane]	41.1 ± 1.21	49.1 ± 1.11		12.5 ± 2.44	
C[C@H](CC[C@H](O)[C@H](C)CO)[C@H]1CC[C@H]2[C@@H]3[C@H](O)C[C@@H]4C[C@H](O)CC[C@]4(C)[C@H]3C[C@H](O)[C@]12C [Example 10, (24S)-(25R) 3α,7α,12α,24,26-pentahydroxy-5β-cholestane]	42.2 ± 2.33	48.3 ± 1.65		13.8 ± 2.85	
C[C@H](CC[C@@H](O)[C@@H](C)CO)[C@H]1CC[C@H]2[C@@H]3[C@H](O)C[C@@H]4C[C@H](O)CC[C@]4(C)[C@H]3C[C@H](O)[C@]12C [Example 11, (24R)-(25S)-3α,7α,12α,24,26-pentahydroxy-5β-cholestane]	43.3 ± 2.81	40.8 ± 1.90		14.4 ± 2.01	
C[C@H](CO)[C@H](O)CC[C@@H](C)[C@H]1CC[C@H]2[C@@H]3[C@H](O)C[C@@H]4C[C@H](O)CC[C@]4(C)[C@H]3C[C@H](O)[C@]12C [Example 12, (24R)-(25R)-3α,7α,12α,24,26-pentahydroxy-5β-cholestane]	46.5 ± 5.82	41.3 ± 3.81		12.2 ± 1.88	
C[C@H](CC[C@@H](O)C(CO)CO)[C@H]1CC[C@H]2[C@@H]3[C@H](O)C[C@@H]4C[C@H](O)CC[C@]4(C)[C@H]3C[C@H](O)[C@]12C [Illustrative Example 1, (24R)-(+)-3α,7α,12α,24,26,27-hexahydroxy-5β-cholestane]	50.3 ± 1.32	43.8 ± 3.99		15.1 ± 1.98	
C[C@H](CC[C@@H](O)CCO)[C@H]1CC[C@H]2[C@@H]3[C@H](O)C[C@@H]4C[C@H](O)CC[C@]4(C)[C@H]3C[C@H](O)[C@]12C [Illustrative Example 2, 27-nor-(24R)-(+)-3α,7α,12α,24,26-pentahydroxy-5β-cholestane]	51.5 ± 1.55	44.4 ± 4.51	201 ± 4.1	13.4 ± 2.38	
C[C@H](CC[C@H](O)CCO)[C@H]1CC[C@H]2[C@@H]3[C@H](O)C[C@@H]4C[C@H](O)CC[C@]4(C)[C@H]3C[C@H](O)[C@]12C [Illustrative Example 3, 27-nor-(24S)-(+)-3α,7α,12α,24,26-pentahydroxy-5β-cholestane]	50.3 ± 1.38	45.5 ± 2.66	213 ± 5.5	12.3 ± 3.55	
C[C@H](CCCC(C)(O)CO)[C@H]1CC[C@H]2[C@@H]3[C@H](O)C[C@@H]4C[C@H](O)CC[C@]4(C)[C@H]3C[C@H](O)[C@]12C (stereo partly drawn) [Illustrative Example 4, 5β-cholestane-3α,7α,12α,25,26-pentol]	42.5 ± 1.65	48.7 ± 2.53		14.1 ± 2.11	
CC(C)C(O)CC[C@@H](C)[C@H]1CC[C@H]2[C@@H]3[C@H](O)C[C@@H]4C[C@H](O)CC[C@]4(C)[C@H]3C[C@H](O)[C@]12C (stereo partly drawn) [Illustrative Example 5, 3α,7α,12α,24-tetrahydroxy-5β-cholestane]	44.8 ± 3.62	49.9 ± 4.85		13.8 ± 3.77	
C[C@H](CCCO)[C@H]1CC[C@H]2[C@@H]3[C@H](O)C[C@@H]4C[C@H](O)CC[C@]4(C)[C@H]3C[C@H](O)[C@]12C [Illustrative Example 6, 3α,7α,12α,24-tetrahydroxy-5β-cholan]	43.5 ± 3.26	47.7 ± 2.58		12.4 ± 2.39	
